This note sets out measurements from PubChem BioAssay (NCI).

Some test systems named below: MOLT-4 leukemia; HOP-62 NSCLC; COLO 205 colon; M14 melanoma; IGROV1 ovarian; NCI-H460 lung; RXF 393 renal; UACC-62 melanoma; SF-295 CNS; HCT-15 colon.
What all share (assay): NCI-60 cell line screen, 48 h

“And” between values parts separate entries of the source, which are not always exact repeats. Identical values can stand only once.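 In this assay, cells in 96-well plates receive the compound at five concentrations for 48 hours. Endpoints are linearly interpolated between the surrounding concentrations. GI50 marks 50% less growth. Definition used: TGI = concentration required for complete inhibition of growth.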

As to `CCCCCC/C(CC(=O)CCC(=O)NCCc1ccccc1)=N\NC(=O)c1ccc2ccccc2c1O`, the TGI was 56.5 µM with MOLT-4 leukemia; over 100 µM with HOP-62 NSCLC; over 100 µM in the test on COLO 205 colon; over 100 µM in the test on M14 melanoma; over 100 µM in the test with IGROV1 ovarian; over 100 µM with NCI-H460 lung. The TGI was over 100 µM in the test with RXF 393 renal, 50.8 µM in the test with UACC-62 melanoma and over 100 µM in the test with SF-295 CNS.
For the molecule `Cc1c(C(=O)Nc2ccc(Cl)cc2)nc(N)nc1-c1cccc(Cl)c1`, the TGI with MOLT-4 leukemia, in the test with HOP-62 NSCLC, in the test with COLO 205 colon, with M14 melanoma, with IGROV1 ovarian and in the test on NCI-H460 lung was over 100 µM in each case. Besides, the TGI in the test with RXF 393 renal, with UACC-62 melanoma and in the test with SF-295 CNS was over 100 µM in each case.
For the molecule `CC(C)Cn1cnc2c(SCc3ccccn3)nc(N)nc21`, the TGI in the test with HOP-62 NSCLC, in the test on COLO 205 colon, in the test with HCT-15 colon, in the test with M14 melanoma, in the test with IGROV1 ovarian and with NCI-H460 lung was over 100 µM in each case. For the same molecule, the TGI in the test with RXF 393 renal, in the test on UACC-62 melanoma and in the test with SF-295 CNS was over 100 µM each time.
For the molecule `CCCNC(=O)Nc1ccc2c(c1)Cc1cc(N(CCCl)CCCl)ccc1-2`, the TGI in the test on HOP-62 NSCLC is over 100 µM; with COLO 205 colon, 26.7 µM; in the test with HCT-15 colon, over 100 µM; in the test on M14 melanoma it was over 100 µM; in the test on IGROV1 ovarian it was 50.6 µM; with NCI-H460 lung, over 100 µM. Also, the TGI with RXF 393 renal is 34.2 µM; in the test with UACC-62 melanoma it was over 100 µM; in the test on SF-295 CNS, 44.2 µM.
Turning to `CCc1cccc(CC)c1NC(=O)C1=CNC(C)=C(C(=O)Nc2c(CC)cccc2CC)C1c1ccc(O)c(OC)c1` (configuration not stated), the TGI is 82.9 µM in the test on MOLT-4 leukemia; 86.8 µM with HOP-62 NSCLC; over 100 µM in the test with COLO 205 colon; over 100 µM with M14 melanoma; over 100 µM with IGROV1 ovarian; 98.8 µM in the test with NCI-H460 lung. Also, the results for the TGI with RXF 393 renal and with SF-295 CNS were 93.9 µM and 73.8 µM, respectively.
On to `Nc1nc(Cl)c2ncn(Cc3ccc(-c4ccc(CCl)cc4)cc3)c2n1`, for which the GI50 with MOLT-4 leukemia is over 100 µM; with HOP-62 NSCLC, 15 µM; in the test on COLO 205 colon it was 7.17 µM; in the test with M14 melanoma, 13.3 µM; in the test with IGROV1 ovarian it was 12.5 µM; in the test on NCI-H460 lung, 20.4 µM. For the same molecule, the GI50 was 12.1 µM in the test on RXF 393 renal, 9.26 µM in the test with UACC-62 melanoma and 17.4 µM in the test on SF-295 CNS. Further, the TGI is over 100 µM in the test on MOLT-4 leukemia; 34.8 µM in the test with HOP-62 NSCLC; 74.4 µM in the test with COLO 205 colon; 29.4 µM with M14 melanoma; over 100 µM in the test on IGROV1 ovarian; 69.1 µM in the test on NCI-H460 lung. Moreover, the TGI in the test on RXF 393 renal was 54.4 µM; in the test with UACC-62 melanoma it was 23 µM; in the test on SF-295 CNS, over 100 µM.
Take `CC1CC2(C)CC(=O)C1C1C(=O)N(CCN3CCOCC3)C(=O)C12` (configuration not stated): the GI50 with MOLT-4 leukemia, in the test with HOP-62 NSCLC, with COLO 205 colon, in the test with HCT-15 colon, with M14 melanoma and in the test with IGROV1 ovarian was over 100 µM each time. Also, the GI50 with RXF 393 renal, in the test on UACC-62 melanoma and with SF-295 CNS was over 100 µM throughout. Besides, the TGI with MOLT-4 leukemia, in the test on HOP-62 NSCLC, with COLO 205 colon, in the test with HCT-15 colon, with M14 melanoma and with IGROV1 ovarian was over 100 µM in each case. In addition, the TGI in the test on RXF 393 renal, in the test on UACC-62 melanoma and in the test with SF-295 CNS was over 100 µM throughout.
Consider `N#CC1C(=O)NC(=O)C(C#N)C1c1ccc(Cl)c(Cl)c1` (configuration not stated), for which the TGI with MOLT-4 leukemia was 62 µM; in the test with HOP-62 NSCLC, 43.4 µM; with COLO 205 colon it was over 100 µM; with HCT-15 colon, 46.1 µM; with M14 melanoma, 56 µM; with IGROV1 ovarian, 47.3 µM. Also, the TGI is over 100 µM in the test with NCI-H460 lung, 50.5 µM with RXF 393 renal and over 100 µM in the test on SF-295 CNS.
Turning to `CC1CCC2[C@@H](C)COC3O[C@]4(C)CCC1C32OO4` (some centres not stated), the TGI with HOP-62 NSCLC, in the test with COLO 205 colon, in the test on HCT-15 colon, in the test with M14 melanoma, in the test with IGROV1 ovarian and in the test with NCI-H460 lung was over 100 µM in each case. The TGI in the test on RXF 393 renal, in the test with UACC-62 melanoma and in the test on SF-295 CNS was over 100 µM each time.
For the molecule `C=C1C(OCCO)OC2O[C@]3(C)CCC4[C@H](C)CCC1C24OO3` (some centres not stated), the GI50 is 1.96 µM in the test with MOLT-4 leukemia; 52.7 µM with HOP-62 NSCLC; 2.87 µM with COLO 205 colon; 3.88 µM in the test on HCT-15 colon; 78.4 µM with M14 melanoma; 12.3 µM in the test on IGROV1 ovarian. Also, the GI50 in the test on NCI-H460 lung was over 100 µM; in the test on UACC-62 melanoma it was 42.7 µM; in the test on SF-295 CNS, over 100 µM. The TGI in the test on MOLT-4 leukemia was 27.9 µM; in the test with HOP-62 NSCLC it was over 100 µM; in the test with COLO 205 colon it was 14.3 µM; in the test with HCT-15 colon, over 100 µM; in the test with M14 melanoma, over 100 µM; in the test on IGROV1 ovarian it was 34.9 µM. Also, the TGI in the test with NCI-H460 lung, in the test on UACC-62 melanoma and in the test on SF-295 CNS was over 100 µM each time.
With `CN(C)c1ccc(/C=N/NC(=O)c2cnc3ccccc3c2)cc1`, the TGI in the test with HOP-62 NSCLC, in the test with COLO 205 colon, in the test with HCT-15 colon, with M14 melanoma, in the test on IGROV1 ovarian and in the test on NCI-H460 lung was over 100 µM each time. Further, the TGI in the test with RXF 393 renal was 54.9 µM; in the test with UACC-62 melanoma, over 100 µM; with SF-295 CNS, over 100 µM.
On to `NC(=S)N=Nc1c(O)[nH]c2ccccc12`, for which the GI50 with MOLT-4 leukemia is 243 µM; in the test on HOP-62 NSCLC it was 167 µM; in the test on HCT-15 colon, 139 µM; in the test on IGROV1 ovarian, 66.7 µM and 162 µM; in the test on NCI-H460 lung, 185 µM; with RXF 393 renal it was 134 µM. In addition, the GI50 in the test with UACC-62 melanoma is 209 µM; with SF-295 CNS it was 197 µM. Further, the TGI was over 1000 µM in the test on MOLT-4 leukemia; 360 µM in the test with HOP-62 NSCLC; over 1000 µM in the test on COLO 205 colon; 470 µM with HCT-15 colon; 477 µM in the test on IGROV1 ovarian; over 1000 µM with NCI-H460 lung. The TGI is 262 µM in the test with RXF 393 renal, 497 µM in the test on UACC-62 melanoma and 498 µM in the test with SF-295 CNS.
